Reference: patent USRE47689E1, “Compounds for treating spinal muscular atrophy” (PTC Therapeutics, Inc., priority 2011, dated 2019)
Read-outs that look alike come from different tables or passages of the source.

Experiments:
[1] = system: SMN2 minigene (full length SMN2 minigene mRNA containing SMN2 exon 7); test: SMN2 minigene mRNA splicing RT-qPCR assay in cultured cells; assay type: cell-based, human; conditions: Homo sapiens, HEK293-H, read-out: EC1.5x for production of full length SMN2 mRNA
Method in brief: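 Full-length SMN2 minigene mRNA (exon 7 included), minigene-specific and not endogenous SMN, quantified by RT-qPCR multiplexed with GAPDH in stably transfected HEK293H cells after 24 h compound exposure at 37° C. Abundance from efficiency-corrected Ct, normalized to GAPDH and vehicle; EC1.5x reported as star bins.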

Smn protein = Smn protein assay in cultured cells (SMN HTRF); assay type: cell-based, human; conditions: 48 hours; for maximum fold (Fold) increase of Smn protein: SMA patient fibroblast cells, 7-point concentration data, fold increase relative to vehicle control (SMN HTRF); for EC1.5x (concentration giving 1.5-fold Smn protein increase): SMA Type 1 patient fibroblast cells (GM03813), 7-point concentration curve, SMN HTRF, concentration producing 1.5 times Smn protein vs DMSO vehicle control, read-out: EC1.5x for Smn protein expression
Method in brief: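 Smn in SMA fibroblast lysates, measured by anti-SMN HTRF after 48 h compound exposure; EC1.5x from fold change over vehicle.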

[2] = HEK293H cells stably transfected with SMN2-A minigene, 24 hours, 7-point concentration curve, 1.5-fold relative to vehicle-treated cells

Row | SMILES | EC (1.5-fold) ([1]; 24 h) | maximum fold (Fold) increase of Smn protein (Smn protein) | melting point | EC (1.5-fold) [1, 2] | EC1.5x (concentration giving 1.5-fold Smn protein increase) (Smn protein)
1 | Cc1csc(-c2cc3ccc(N4CCN[C@@H](C)C4)cc3oc2=O)n1 [Cpd 283, 7-[(3S)-3-methylpiperazin-1-yl]-3-(4-methyl-1,3-thiazol-2-yl)-2H-chromen-2-one] | 0.3 to 1 µM | * (maximum fold increase of ≤1.2) | 194 to 199 °C | – | –
2 | O=c1oc2cc(N3CCNCC3)cc(F)c2cc1-c1cc(F)cc(F)c1 [Cpd 290, 3-(3,5-difluorophenyl)-5-fluoro-7-(piperazin-1-yl)-2H-chromen-2-one] | – | * (maximum fold increase of ≤1.2) | 193 to 198 °C | 0.3 to 1 µM | –
3 | COc1ccc(-c2cc3ccc(N4CCNCC4)cc3oc2=O)cc1OC [Cpd 316, 3-(3,4-dimethoxyphenyl)-7-(piperazin-1-yl)-2H-chromen-2-one] | – | ** (fold increase between >1.2 and ≤1.35) | 168 to 170 °C | 0.3 to 1 µM | –
4 | CC(C)Oc1cccc(-c2cc3ccc(N4CCNCC4)cc3oc2=O)n1 [Cpd 385, 7-(piperazin-1-yl)-3-[6-(propan-2-yloxy)pyridin-2-yl]-2H-chromen-2-one] | – | * (maximum fold increase of ≤1.2) | 177 to 180 °C | 1 to 3 µM | –
5 | O=c1oc2cc(N3CCNCC3)ccc2cc1-c1cccc(N2CCCC2)n1 [Cpd 386, 7-(piperazin-1-yl)-3-[6-(pyrrolidin-1-yl)pyridin-2-yl]-2H-chromen-2-one] | – | * (maximum fold increase of ≤1.2) | 190 to 192 °C | 3 to 30 µM | –
6 | C[C@@H]1CN(c2cc(F)c3cc(-c4cn5ccc(C(F)(F)F)cc5n4)c(=O)oc3c2)C[C@H](C)N1 [Cpd 391, 7-[(3R,5S)-3,5-dimethylpiperazin-1-yl]-5-fluoro-3-[7-(trifluoromethyl)imidazo[1,2-a]pyridin-2-yl]-2H-chromen-2-one] | – | ** (fold increase between >1.2 and ≤1.35) | 210 to 219 °C | 1 to 3 µM | –
7 | Cc1cc(F)c2nc(-c3cc4ccc(N5CCN[C@@H](C)C5)cc4oc3=O)cn2c1 [Cpd 421, 3-(8-fluoro-6-methylimidazo[1,2-a]pyridin-2-yl)-7-[(3S)-3-methylpiperazin-1-yl]-2H-chromen-2-one] | – | *** (fold increase between >1.35 and ≤1.5) | 250 to 255 °C | < 0.1 µM | < 300 nM
8 | CCc1cn2cc(-c3cc4ccc(N5C[C@@H](C)N[C@@H](C)C5)cc4oc3=O)nc2s1 [Cpd 429, 7-[(3R,5S)-3,5-dimethylpiperazin-1-yl]-3-(2-ethylimidazo[2,1-b][1,3]thiazol-6-yl)-2H-chromen-2-one] | – | * (maximum fold increase of ≤1.2) | 251 to 253 °C | 0.3 to 1 µM | –
9 | C[C@@H]1CN(c2ccc3cc(-c4cn(-c5ccccn5)cn4)c(=O)oc3c2)C[C@H](C)N1 [Cpd 433, 7-[(3R,5S)-3,5-dimethylpiperazin-1-yl]-3-[1-(pyridin-2-yl)-1H-imidazol-4-yl]-2H-chromen-2-one] | – | * (maximum fold increase of ≤1.2) | 201 to 206 °C | 3 to 30 µM | –
10 | Cc1nn2cc(-c3cc4ccc(N5CCNCC5)cc4oc3=O)nc2s1 [Cpd 441, 3-(2-methylimidazo[2,1-b][1,3,4]thiadiazol-6-yl)-7-(piperazin-1-yl)-2H-chromen-2-one] | – | *** (fold increase between >1.35 and ≤1.5) | 288 to 290 °C | < 0.1 µM | –
11 | CSc1cccc(-c2cc3ccc(N4CCNCC4)cc3oc2=O)n1 [Cpd 445, 3-[6-(methylsulfanyl)pyridin-2-yl]-7-(piperazin-1-yl)-2H-chromen-2-one] | – | * (maximum fold increase of ≤1.2) | 180 to 183 °C | 3 to 30 µM | –
12 | C[C@@H]1CN(c2ccc3cc(-c4cn(-c5ccccc5)cn4)c(=O)oc3c2)C[C@H](C)N1 [Cpd 452, 7-[(3R,5S)-3,5-dimethylpiperazin-1-yl]-3-(1-phenyl-1H-imidazol-4-yl)-2H-chromen-2-one] | – | * (maximum fold increase of ≤1.2) | 260 to 264 °C | 3 to 30 µM | –
13 | O=c1oc2cc(N3CCNCC3)ccc2cc1-c1cn2ccncc2n1 [Cpd 456, 3-(imidazo[1,2-a]pyrazin-2-yl)-7-(piperazin-1-yl)-2H-chromen-2-one] | – | **** (fold increase between >1.5 and ≤1.65) | 258 to 260 °C | < 0.1 µM | 1000 to 3000 nM
14 | CN1CCN(c2ccc3cc(-c4cn5cnccc5n4)c(=O)oc3c2)CC1 [Cpd 458, 3-(imidazo[1,2-c]pyrimidin-2-yl)-7-(4-methylpiperazin-1-yl)-2H-chromen-2-one] | – | *** (fold increase between >1.35 and ≤1.5) | 253 to 255 °C | 0.3 to 1 µM | –
15 | CN1CCN(c2ccc3cc(-c4cn5cc(F)cnc5n4)c(=O)oc3c2)CC1 [Cpd 480, 3-(6-fluoroimidazo[1,2-a]pyrimidin-2-yl)-7-(4-methylpiperazin-1-yl)-2H-chromen-2-one] | – | * (maximum fold increase of ≤1.2) | 275 to 280 °C | 3 to 30 µM | –
16 | CN1CCCN(c2ccc3cc(-c4cn5cc(F)cc(F)c5n4)c(=O)oc3c2)CC1 [Cpd 520, 3-(6,8-difluoroimidazo[1,2-a]pyridin-2-yl)-7-(4-methyl-1,4-diazepan-1-yl)-2H-chromen-2-one] | – | ** (fold increase between >1.2 and ≤1.35) | 255 to 260 °C | 0.3 to 1 µM | –
17 | O=c1oc2cc(N3CCNCC3)ccc2cc1-c1cc2ccccn2c1 [Cpd 529, 3-(indolizin-2-yl)-7-(piperazin-1-yl)-2H-chromen-2-one] | – | * (maximum fold increase of ≤1.2) | 186 to 188 °C | 1 to 3 µM | –
18 | O=c1oc2cc(N3CCNCC3)ccc2cc1-c1cc2ncccn2c1 [Cpd 579, 7-(piperazin-1-yl)-3-(pyrrolo[1,2-a]pyrimidin-7-yl)-2H-chromen-2-one] | – | * (maximum fold increase of ≤1.2) | 235 to 238 °C | 0.3 to 1 µM | –
19 | Cc1cn2cc(-c3cc4ccc(N5CCNCC5)cc4oc3=O)cc2cn1 [Cpd 588, 3-(3-methylpyrrolo[1,2-a]pyrazin-7-yl)-7-(piperazin-1-yl)-2H-chromen-2-one] | – | ***** (fold increase >1.65) | 220 °C (dec.) | < 0.1 µM | < 300 nM
20 | Cc1cn2cc(-c3cc4ccc(N5CCCNCC5)cc4oc3=O)nc2c(C(F)(F)F)n1 [Cpd 607, 7-(1,4-diazepan-1-yl)-3-[6-methyl-8-(trifluoromethyl)imidazo[1,2-a]pyrazin-2-yl]-2H-chromen-2-one] | – | *** (fold increase between >1.35 and ≤1.5) | > 300 °C | < 0.1 µM | 300 to 1000 nM
